Test results as given in ChEMBL document CHEMBL1145911, “Rational design and synthesis of androgen receptor-targeted nonsteroidal anti-androgen ligands for the tumor-specific delivery of a doxorubicin-formaldehyde conjugate” (J Med Chem, 2003).

Biological target: T1, Androgen receptor (Homo sapiens, UniProt P10275)
T1 sequence (P10275 whole entry): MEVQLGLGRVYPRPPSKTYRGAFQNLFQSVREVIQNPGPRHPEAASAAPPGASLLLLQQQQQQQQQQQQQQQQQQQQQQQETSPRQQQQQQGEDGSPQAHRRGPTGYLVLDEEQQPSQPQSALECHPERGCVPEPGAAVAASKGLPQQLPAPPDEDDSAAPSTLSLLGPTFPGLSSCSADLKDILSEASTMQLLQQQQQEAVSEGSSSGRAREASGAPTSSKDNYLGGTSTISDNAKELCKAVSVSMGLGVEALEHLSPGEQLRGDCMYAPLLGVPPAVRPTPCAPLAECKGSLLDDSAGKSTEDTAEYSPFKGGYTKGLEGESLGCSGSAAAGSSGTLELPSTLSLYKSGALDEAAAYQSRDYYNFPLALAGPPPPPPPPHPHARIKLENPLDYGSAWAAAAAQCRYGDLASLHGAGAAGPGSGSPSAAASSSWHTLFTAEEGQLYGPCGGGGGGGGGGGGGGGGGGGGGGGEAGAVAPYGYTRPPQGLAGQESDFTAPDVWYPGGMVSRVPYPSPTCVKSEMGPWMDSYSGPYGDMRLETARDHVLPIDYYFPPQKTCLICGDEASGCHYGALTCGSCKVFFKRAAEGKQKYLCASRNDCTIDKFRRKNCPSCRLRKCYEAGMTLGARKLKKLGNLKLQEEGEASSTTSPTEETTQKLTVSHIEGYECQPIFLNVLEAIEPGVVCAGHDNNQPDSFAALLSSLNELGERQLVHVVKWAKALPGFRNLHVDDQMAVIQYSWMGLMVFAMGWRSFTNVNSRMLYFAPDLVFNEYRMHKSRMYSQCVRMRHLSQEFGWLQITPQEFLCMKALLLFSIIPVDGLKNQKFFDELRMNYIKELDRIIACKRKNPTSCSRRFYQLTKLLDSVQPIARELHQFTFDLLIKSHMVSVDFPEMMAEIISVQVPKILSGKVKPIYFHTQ
Experiment: biochemical

Q: For CC1(C)C(=O)N(c2ccc(C#N)c(C(F)(F)F)c2)C(=O)N1CCCCN1CCN(CCOCc2ccc(O)c(C(N)=O)c2)CC1, which IC50 is on record?
A: > 1000 nM

Q: Which IC50 does the source give for COc1cccc2c1C(=O)c1c(O)c3c(c(O)c1C2=O)C[C@@](O)(C(=O)CO)C[C@@H]3OC1C[C@H](NCNC(=O)c2cc(COCC#CCN3C(=O)N(c4ccc(C#N)c(C(F)(F)F)c4)C(=O)C3(C)C)ccc2O)[C@H](O)[C@H](C)O1 (stereo partly drawn) here?
A: 90 nM

Q: CC1(C)C(=O)N(c2ccc(C#N)c(C(F)(F)F)c2)C(=O)N1CCOCCN1CCN(CCOCc2ccc(O)c(C(N)=O)c2)CC1 was tested. Which IC50 did it give?
A: 346 nM
